For orientation: Ki means a dissociation constant, usually derived from enzyme kinetics or from competition with a known ligand. A lower Ki goes with higher affinity.

The assay in a line: Tested for inhibition of [3H]PAF binding to rabbit Platelet activating factor receptor.
In the case of `COCCOC(=O)C1C(C)=NC(C)=C(C(=O)OCCSC)C1C` (stereo not given), the Ki turned out to be 4410 nM.
With `COC(=O)C1C(C)=NC(C)=C(C(=O)OCCSC)C1C` (stereo not given), the affinity corresponds to a Ki of 603 nM. This Ki lies about 7.3-fold lower than the previous one.
For `CCOC(=O)C1C(C)=NC(C)=C(C(=O)OCCSC)C1CC` (stereo not given) the value was 1010 nM; for `COC(=O)C1C(C)=NC(C)=C(C(=O)OCCSc2ccccc2)C1C` (stereo not given), 15 nM.
For `CCOC(=O)C1C(C)=NC(C)=C(C(=O)OCCSC)C1C` (stereo not given) the value was 1040 nM; for `CC1=NC(C)=C(C(=O)OCCSc2ccccc2)C(C)C1C(=O)OCC1CCCO1` (stereo not given), 2090 nM.
The result for `CC1=NC(C)=C(C(=O)OCCSc2ccccc2)C(C)C1C(=O)OC(C)C` (stereo not given) reads 913 nM.
`CCOC(=O)C1C(C)=NC(C)=C(C(=O)OCCSc2ccccc2)C1C` (stereo not given): the Ki came out at 69 nM. This Ki is about 13-fold lower than that of the compound before.
For `CCOC(=O)C1C(C)=NC(C)=C(C(=O)OCCSCC)C1C` (stereo not given) the value was 1000 nM; for `CCSCCOC(=O)C1=C(C)N=C(C)C(C(=O)OC)C1C` (stereo not given), 505 nM.

Source of the values: BindingDB's records for doi:10.1021/jm00174a017 (Alter, 1991).
